Data reported in PMC5068570 (Journal of the American Chemical Society, 2016).

Molecular target: T1, Robo1 (Roundabout receptor 1; Robo1-GFP) (Homo sapiens, UniProt Q9Y6N7)
T1 sequence (Q9Y6N7 60-265 limits assumed): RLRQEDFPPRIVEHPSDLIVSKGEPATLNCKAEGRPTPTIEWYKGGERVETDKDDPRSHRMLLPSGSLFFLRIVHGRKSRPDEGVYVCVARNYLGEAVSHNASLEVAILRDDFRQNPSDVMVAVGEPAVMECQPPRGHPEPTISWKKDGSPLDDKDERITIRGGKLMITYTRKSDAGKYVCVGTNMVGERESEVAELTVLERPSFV
Experiment: SPR, Biacore T100, Robo1 immobilised on CM5
Type: binding
Details: HBS-EP pH 7.4, 150 mM NaCl, 25 °C; Langmuir 1:1 fit

Kd [µM] | Substance
4.8 | GlcA-GlcNS6S-IdoA-GlcNS-IdoA2S-GlcNS6S-IdoA-GlcNAc6S [compound 1]
~20 | IdoA-GlcNS6S-IdoA-GlcNS6S [compound 19]
